Read-outs that look alike come from different tables or passages of the source.
How the values were obtained:
Nematospiroides dubius = assay: Anthelmintic efficacy against N. dubius in mice, single oral dose; format: in vivo, Nematospiroides dubius (in albino female mice); settings: for inhibition in vivo at 1.25 mg/kg: single oral dose 1.25 mg./Kg.; for inhibition in vivo at 2 mg/kg: single oral dose 2.0 mg./Kg.; for inhibition in vivo at 0.625 mg/kg: single oral dose 0.625 mg./Kg., adjusted to molar equivalents of tetramisole free base; for inhibition in vivo at 20 mg/kg: single oral dose 20 mg./Kg.; for inhibition in vivo at 7.5 mg/kg: single oral dose 7.5 mg./Kg.
Experimental: Albino female mice are each inoculated with about 20 infectious larvae of Nematospiroides dubius. This nematode is a representative of the economical important trichostrongylis worms of ruminants and other hosts, and of nematodes in general. Twenty-two days after inoculation, groups of four randomly selected mice containing adult N. dubius are given single oral doses of test compounds dissolved or suspended in 0.4 ml. of water per 20 gram mouse. At 26 or 27 days after inoculation, treated mice and in each test four randomly selected groups of untreated mice are necropsied. The number of worms in the small intestine of each mouse are determined by microscopic examination. Average worm numbers for each treated group and for the untreated controls are computed and the percent efficacy determined by the customary formula:
(Average Worms in Control - Average Worms in Treated)/(Average Worms in Control) X 100.

in vivo = settings: for LD50: mouse, in vivo, po; for Approx. LD50 /ED50: chemotherapeutic index, mouse oral, N. dubius; for Dead/Total: mice
Excerpt: Data on the acute oral toxicity to mice of various single oral doses of the above compounds and several analogs were obtained by conventional procedures, (Table IX hereinafter).

[1] = Heligmosomoides polygyrus, po, molar-adjusted, read-out: Percent Nematospiroides Activity
[2] = LD50, mice, adjusted to molar equivalents of tetramisole free base
[3] = Heligmosomoides polygyrus, po, read-out: Percent Nematospiroides Activity
[4] = Heligmosomoides polygyrus, po, single oral dose 5.0 mg./Kg., molar-adjusted, read-out: Percent Nematospiroides Activity
[5] = Heligmosomoides polygyrus, po, single oral dose 10 mg./Kg., molar-adjusted, read-out: Percent Nematospiroides Activity
[6] = Heligmosomoides polygyrus, po, as Base, single oral dose, mice, > indicates inactive at dose shown, read-out: Approx. ED50
[7] = Heligmosomoides polygyrus, po, mouse oral, Table IX, read-out: Approx. ED50 vs. N. dubius
[8] = Approx. LD50, mouse oral, Table IX

Row | Structure (SMILES) | inhibition in vivo at 1.25 mg/kg (Nematospiroides dubius; [1]) [%] | inhibition in vivo at 2 mg/kg (Nematospiroides dubius; [1]) [%] | LD50 (in vivo; [2]) [mg/kg] | inhibition in vivo at 0.625 mg/kg (Nematospiroides dubius; [3]) [%] | inhibition in vivo at 5 mg/kg (Nematospiroides dubius; [4]) [%] | inhibition in vivo at 10 mg/kg (Nematospiroides dubius; [5]) [%] | ED50 (Nematospiroides dubius; [6]) [mg/kg] | ED50 (Nematospiroides dubius; [7]) [mg/kg] | LD50 (in vivo; [8]) [mg/kg] | further results
1 | O=C(Nc1cccc(C2CN3CCSC3=N2)c1)c1ccccc1 (stereo not drawn) [Table XII b1839] | 94 | 100 | 50 to 60 |  |  |  |  |  |  | 
2 | COc1ccc(C(=O)Nc2cccc(C3CN4CCSC4=N3)c2)cc1 (stereo not drawn) [Table XII b1843] | 58 | 95 | 60 to 80 | 56 | 100 |  |  |  |  | 
3 | O=C(Nc1cccc(C2CN3CCSC3=N2)c1)c1ccc(Cl)cc1 (stereo not drawn) [Table XII b1847] | 63 | 90 | ~80 | 40 | 100 |  |  |  |  | 
4 | O=C(Nc1cccc(C2CN3CCSC3=N2)c1)c1cccc(Cl)c1 (stereo not drawn) [Table XII b1851] | 52 | 95 | 80 to 100 | 40 | 97 |  |  |  |  | 
5 | O=C(Nc1cccc(C2CN3CCSC3=N2)c1)c1ccc(Cl)c(Cl)c1 (stereo not drawn) [Table XII b1854] | 52 | 92 | 80 to 100 | 58 | 95 |  |  |  |  | 
6 | O=C(Nc1cccc(C2CN3CCSC3=N2)c1)c1ccc([N+](=O)[O-])cc1 (stereo not drawn) [Table XII b1857] | 65 | 78 | 60 to 90 |  | 100 | 100 |  |  |  | 
7 | O=C(Nc1cccc(C2CN3CCSC3=N2)c1)c1ccco1 (stereo not drawn) [Table XII b1864] |  | 37 | 80 to 100 |  | 85 | 99 |  |  |  | inhibition in vivo at 20 mg/kg (Nematospiroides dubius; [1]): 100%
8 | O=C(Nc1cccc(C2CN3C=CSC3=N2)c1)c1ccccc1 (stereo not drawn) [Table XIV b1987] |  |  | ~120 |  | 94 | 100 |  |  |  | Percent Nematospirides Activity (Nematospiroides dubius; single oral dose 2.5 mg./Kg., molar-adjusted): 73%
9 | CC(=O)Nc1cccc(C2CN3CCSC3=N2)c1 (stereo not drawn) [m-NH--CO--CH3 dl, 3'-(2,3,5,6-Tetrahydroimidazo[2,1-b]thiazol-6-yl)acetanilide] |  |  |  |  |  |  | 4 | 3 to 4 | > 10 | 
10 | CC(C)C(=O)Nc1cccc(C2CN3CCSC3=N2)c1.Cl (stereo not drawn) [m-NH--CO--CH(CH3)2 dl, 3'-(2,3,5,6-tetrahydroimidazo[2,1-b]thiazol-6-yl)isobutyranilide hydrochloride] |  |  | ~75 |  | 99 | 100 | 3 | 3 | ~60 | inhibition in vivo at 20 mg/kg (Nematospiroides dubius; [1]): 100%; Approx. LD50 /ED50 (in vivo; Table IX): 20; Dead/Total (in vivo; single oral dose 40 Mg./Kg.): 1/6; Dead/Total (in vivo; single oral dose 80 Mg./Kg.): 5/6; Dead/Total (in vivo; single oral dose 120 Mg./Kg.): 6/6
11 | CC(C)C(=O)Nc1cccc(C2CN3CCSC3=N2)c1 (stereo not drawn) [m-NH--CO--CH(CH3)2 l] | 77 | 96 | 60 to 75 | 30 |  |  | 1 | 1 | 50 | inhibition in vivo at 7.5 mg/kg (Nematospiroides dubius; [1]): 97%; Percent Nematospiroides Activity (Nematospiroides dubius; single oral dose 5.0 mg./Kg., molar-adjusted): 100%; Percent Nematospiroides Activity (Nematospiroides dubius; single oral dose 10 mg./Kg., molar-adjusted): 100%; Approx. LD50 /ED50 (in vivo; Table IX): 50; Dead/Total (in vivo; single oral dose 50 Mg./Kg.): 2/8; Dead/Total (in vivo; single oral dose 100 Mg./Kg.): 8/8
12 | CC(C)Nc1cccc(C2CN3CCSC3=N2)c1 (stereo not drawn) [m-NH-CH(CH3)2 dl, 6-(m-isopropylaminophenyl)-2,3,5,6-tetrahydroimidazo[2,1-b]thiazole] |  |  | ~50 |  | 55 | 100 | 5 | 5 | ~40 | inhibition in vivo at 7.5 mg/kg (Nematospiroides dubius; [1]): 89%; inhibition in vivo at 20 mg/kg (Nematospiroides dubius; [1]): 100%; inhibition in vivo at 40 mg/kg (Nematospiroides dubius; Heligmosomoides polygyrus, po, single oral dose 40 mg./Kg., molar-adjusted, read-out: Percent Nematospiroides Activity): 100%; Approx. LD50 /ED50 (in vivo; Table IX): 8; Dead/Total (in vivo; single oral dose 40 Mg./Kg.): 2/6; Dead/Total (in vivo; single oral dose 60 Mg./Kg.): 3/6; Dead/Total (in vivo; single oral dose 80 Mg./Kg.): 4/6; Dead/Total (in vivo; single oral dose 100 Mg./Kg.): 5/6

— patent US3989835A, “Method of using 6-substituted amino phenyl-2,3,5,6-tetra-hydro[2,1-b]thiazoles for controlling gastrointestinal nematodes” (American Cyanamid Company, priority 1974, dated 1976)
